The source of these data is a melting point compilation (Tetko et al.; mined from patent text by program, amines drawn as free bases though some values may be those of a salt).

The melting point is the temperature, or range, at which the solid turns liquid.

A value given as a limit tells only on which side of the number the result lay.

The compound `CN(C)CC(=O)N1Cc2cccc3c2N(CC3)c2ccccc21` gave a melting point of 104 to 107 °C.

On to `CSc1nccn1CC(=O)O`, for which the melting point came to 176 °C.

In turn, `O=c1[nH]nc(-c2ccc(NN=C(c3ccccc3)c3ccc(O)cc3O)cc2)c2ccccc12` registered a melting point of 160 to 170 °C.

The compound `Cc1ccc(NC(=O)C(C)(C)C)c(-c2cncc(Br)n2)c1` had a melting point of 74 to 76 °C.

`CC(I)CC(F)(F)C(F)(F)C(F)(F)C(F)(F)C(F)(F)C(F)(F)CC(C)I` (configuration not stated) had a melting point of 53 °C.

In the case of `O=C(Cc1ccc(-c2cccc(F)c2)cc1)Nc1n[nH]c2c1CCC2`, the melting point lay in the range of 180 to 181 °C.

In turn, `CC(=O)Nc1cccc(-c2ccc3nc(-c4cccnc4N)n(-c4ccc(CNS(=O)(=O)c5cn(C)cn5)cc4)c3n2)c1` yielded a melting point of 190 to 192 °C.

In the case of `CC(C)(C)[Si](C)(C)Oc1ccc(-c2ccccc2C=C2SC(=O)NC2=O)cc1C12CC3CC(CC(C3)C1)C2`, the melting point lay within 277 to 278 °C.

For the compound `COC(=O)c1ccc(OCCNC(=O)OCc2ccccc2)cc1Cl`, the melting point is 88 to 90 °C.

Take `Cn1ncnc1COc1nn2c(-c3ccccc3F)nncc2c1C(C)(C)C`: the melting point stood at 128 °C.

Compound `Cc1cc2cc(P(=O)(O)O)c(=O)[nH]c2cc1C` registered a melting point of more than 300 °C.

As for `Clc1ncc(Cl)c(NC2CCCCC2)n1`, the melting point lay in the range of 93 to 94 °C.

`CS(=O)c1ccc(-c2nc(-c3nc4ccccc4c(=O)[nH]3)ccc2OCCO)cc1` (configuration not stated) came in with a melting point of 261 to 262 °C.

In the case of `OC1CSC(Oc2ccccc2-c2ccno2)C(O)C1O` (configuration not stated), the melting point was found to be 200 °C.

The compound `O=C(c1ccc(NC(=O)C(O)(C(F)(F)F)C(F)(F)F)cc1)c1ccccn1` came in with a melting point of 197 to 200 °C.

As for `O=C(CCl)Nc1ccc(C(=O)N2CCc3cc(S(=O)(=O)n4cc(-c5ccccc5)[nH]c4=O)ccc32)cc1`, the melting point lay within 188 to 189 °C.

Compound `O=C(O)c1ccc2oc(-c3ccc(C(F)(F)F)cc3)cc2c1` gave a melting point of more than 260 °C.

Consider `CC(C(=O)NC(=O)OCC(F)(F)F)(c1ccccc1)c1ccccc1`, for which the melting point was 143 to 145 °C.

Regarding `CS(=O)(=O)N1CCOc2ccc(C3=NNC(=O)CC3)cc21`, the melting point stood at 245 °C.

Compound `Nc1nc(Cl)c2ncn(CC3CCOCO3)c2n1` (configuration not stated) registered a melting point of 169 to 170 °C.

The compound `CS(=O)(=O)C(=C1CN(C(c2ccccc2)c2ccccc2)C1)c1cccc(C#N)c1` came in with a melting point of 152 °C.

In turn, `CCOc1ccc(-c2noc3c(Cl)c(O)ccc23)c(F)c1` gave a melting point of 170 to 172 °C.

In the case of `CCOC(=O)Nc1cc(C(C)C(O)(Cn2cncn2)c2ccc(F)cc2F)ccn1` (configuration not stated), the melting point lay in the range of 177 to 179 °C.

Consider `COc1cc(C(=O)CBr)ccc1OCC(F)(F)F`, for which the melting point was 120 °C.

`CCCCc1ccccc1NC(C)=O`: the melting point lay within 96.5 to 99.5 °C.

As for `CNC(=S)NCCS(=O)Cc1cncn1C` (configuration not stated), the melting point was in the range of 139 to 140 °C.

Compound `NC(=O)N(O)CCNC(=O)c1ccc(Cl)cc1` displayed a melting point of 172 to 173 °C.

In turn, `COCC1CN(c2ccc(C3CCC(O)CC3)cn2)C(=O)O1` (racemic) yielded a melting point of 142 to 143 °C.

In turn, `Cc1noc(NS(=O)(=O)c2ccc(-c3ccc(C(=O)O)cc3)s2)c1Br` came in with a melting point of 219 to 228 °C.

As to `CCNC(=O)Nc1cnc2ccc(Cl)nc2n1`, the melting point stood at 240 °C.

The compound `Cn1cc(Br)cc(Br)c1=O` had a melting point of 87 to 88 °C.

With `Cc1ccc(S(=O)(=O)NCCCCOc2ccc(-n3cccc3)cc2)cc1`, the melting point was in the range of 124 to 126 °C.

The compound `Cc1cc(=O)[nH]c2ccc(Cn3ccnc3)cc12` registered a melting point of 266 °C.

For `Cc1n[nH]c(-c2ccncc2)c1-c1ccccc1`, the melting point was in the range of 164 to 165 °C.

As for `COc1cc(C(=O)N2CCN(C(=O)CNC3CCN(Cc4ccccc4)CC3)C(c3ccc(Cl)c(Cl)c3)C2)cc(OC)c1OC` (racemic), the melting point fell in the range of 67 to 70 °C.

`O=[N+]([O-])c1cnccc1Nn1ccc2ccccc21`: the melting point was 170 to 172 °C.

Regarding `OCCOc1nccc(-c2c(-c3ccc(F)cc3)ncn2C2CCC(O)CC2)n1` (configuration not stated), the melting point was in the range of 191 to 193 °C.

Regarding `CC(C)C(=O)NC(C)(C)C`, the melting point lay within 117 to 119 °C.

In turn, `SC1=NC2(CO1)COC(S)=N2` gave a melting point of 200 to 202 °C.

For `CC(C)(C)c1ccc(C=NOCCOc2ccc(C(=O)O)c(O)c2)cc1`, the melting point was in the range of 161 to 163 °C.

For the compound `COC(=O)CCCCCCc1ncsc1C=O`, the melting point lay in the range of 60 to 62 °C.

As to `N#Cc1cc(Br)c(O)c([N+](=O)[O-])c1`, the melting point fell in the range of 162 to 164 °C.

`CCOC(=O)NC(=NCCCCc1ccccn1)NCCCc1c[nH]cn1` came in with a melting point of 92 to 94 °C.

`COc1ccc(Oc2cccc(C(=O)O)c2)cc1` returned a melting point of 141 to 143 °C.

The compound `CNc1cccc(-c2ccnc3c(C(=O)c4ccccc4)cnn23)c1` yielded a melting point of 134 to 136 °C.

Regarding `CC12CC=C3C4=C(CCC3C1CCC2=O)CC1(CC4)OCCO1` (configuration not stated), the melting point lay within 110 to 112 °C.

For the compound `CC(C)(C)c1nc2cc(N3CCOCC3)c(N=C=S)cc2s1`, the melting point was 141 to 143 °C.

Take `COc1cccc2c1oc1c(N)n(C)nc12`: the melting point is 186 to 188 °C.

Regarding `COc1cc(CCNCc2ccccc2)c(CC(=O)O)cc1OC`, the melting point was in the range of 213 to 214 °C.

Consider `CC(C)CNc1sc(-c2cc[nH]n2)c2c1C(=O)CC(C)(C)C2`, for which the melting point lay within 208 to 210 °C.

As to `Cn1cc(C(=O)O)c(=O)c2cc3cc(F)c(N4CCNC(c5ccccc5)C4)cc3nc21` (racemic), the melting point is 265 °C.

Compound `CCOC(=O)c1cnn2c1N(C(=O)CCl)CC=C2c1cccc(C(F)(F)F)c1` showed a melting point of 141 to 142 °C.

For `Cc1ccc(NC(=O)C(=O)N2CCC(Cc3ccccc3)CC2)cc1`, the melting point lay in the range of 115 to 117 °C.

The compound `NCC1(O)C2CC3CC(C2)CC1C3` (configuration not stated) gave a melting point of 154 to 156 °C.

In turn, `O=C1CCCCC1c1cnc2ccccc2c1` (configuration not stated) registered a melting point of 114 to 115 °C.

`CC(C)=CC(=O)N1CC(c2ccccc2)c2ccccc21` (configuration not stated): the melting point is 97 to 98 °C.

Compound `COC(=O)c1nc2cc(C)ccc2c(O)c1C(=O)OC` had a melting point of 209 to 211 °C.

With `NS(=O)(=O)Cc1ccccc1OC(F)(F)F`, the melting point turned out to be 127 °C.

With `CN(CCC(Oc1ccc(S(=O)(=O)c2ccccc2)cc1)c1ccccc1)CC(=O)O` (configuration not stated), the melting point lay in the range of 95 to 100 °C.

`COc1cc(OC)cc(SSc2cc(OC)cc(OC)c2)c1`: the melting point was 152 to 160 °C.

With `CCOC(=O)c1ccccc1-c1ccc2nc[nH]c(=O)c2c1`, the melting point was 151 to 158 °C.

With `CC(=O)c1cccc(NC(=O)C2CCC2)c1`, the melting point lay in the range of 155 to 157 °C.

Consider `O=S1CCON=C1c1cccc(F)c1` (configuration not stated), for which the melting point was 79 °C.

Consider `Cc1cccc(COc2cccc(OCc3cccc(Cl)n3)c2)c1C(=O)O`, for which the melting point was in the range of 97 to 98 °C.

In the case of `Cn1ncnc1COc1nn2c(-c3c(F)cccc3F)nncc2c1-c1ccccc1`, the melting point was 179 °C.

`Cc1nc(N2CCN(Cc3ccc(C(=O)N4CCCCC4)cc3)C2=O)sc1-c1ccn[nH]1` gave a melting point of 156 to 157 °C.

With `CCCCCCc1ccc(O)c(C(=O)Nc2ccc([N+](=O)[O-])cc2)c1`, the melting point lay in the range of 154 to 155 °C.
